Assay results as given in patent US11198713B2, “Agents modulating beta-catenin functions and methods thereof” (FOG PHARMACEUTICALS, INC., priority 2017, dated 2021).

What follows are molecules tested against T1, full-length beta-catenin (Axin site) (Homo sapiens, UniProt P35222) (assay: Competition fluorescence polarization assay (Axin site probe)). Conditions: competition fluorescence polarization, Table 2; read-out: in vitro FP EC50.
T1 construct: 15 nM full-length beta-catenin, 20 nM FITC labeled peptide in buffer
T1 sequence (P35222 1-781): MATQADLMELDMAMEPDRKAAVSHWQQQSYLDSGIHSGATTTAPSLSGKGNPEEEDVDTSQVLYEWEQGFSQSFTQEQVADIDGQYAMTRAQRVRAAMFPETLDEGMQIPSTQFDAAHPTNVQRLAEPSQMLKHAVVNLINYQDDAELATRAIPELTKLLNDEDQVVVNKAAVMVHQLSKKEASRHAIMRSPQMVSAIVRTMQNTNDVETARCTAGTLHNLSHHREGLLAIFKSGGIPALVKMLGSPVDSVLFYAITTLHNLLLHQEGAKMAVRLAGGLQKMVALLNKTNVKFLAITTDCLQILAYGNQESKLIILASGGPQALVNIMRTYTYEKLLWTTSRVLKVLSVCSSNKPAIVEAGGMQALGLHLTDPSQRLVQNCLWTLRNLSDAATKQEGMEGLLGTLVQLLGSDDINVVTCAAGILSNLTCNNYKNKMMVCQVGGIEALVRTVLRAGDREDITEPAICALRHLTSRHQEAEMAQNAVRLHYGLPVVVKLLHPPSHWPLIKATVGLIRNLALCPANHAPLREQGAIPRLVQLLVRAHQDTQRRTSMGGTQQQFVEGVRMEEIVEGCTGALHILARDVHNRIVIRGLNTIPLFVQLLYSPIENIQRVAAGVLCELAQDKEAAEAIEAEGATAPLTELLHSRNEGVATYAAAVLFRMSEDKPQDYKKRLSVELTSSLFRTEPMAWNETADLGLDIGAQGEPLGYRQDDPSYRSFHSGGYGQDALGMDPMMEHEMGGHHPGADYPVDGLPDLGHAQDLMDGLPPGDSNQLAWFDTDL
Assay type: binding
Experimental: FIG. 1. […] Peptide solutions were prepared in buffer (50 mM Tris pH 8.0, 250 mM NaCl, 2% glycerol, 0.5 mM EDTA, 0.02% w/v sodium azide) using a 3-fold serial dilution from 5 μM. Probe solution (15 nM full-length 13-Catenin, 20 nM FITC labeled peptide (FITC-PEG1-PQ-S5-ILD-S5-HVRRVWR (SEQ ID NO: 1) (hydrocarbon staple formed by two S5 via olefin metathesis)) in buffer) was prepared and incubated for 5 minutes, then 40 μL per well plated in a black polystyrene 384-well plate (Corning). Equal volume of the titrated peptide was added to the plate and incubated protected from light for 15 minutes prior to read. Reads were performed on a Spectramax M5 (Molecular Devices) in duplicate.
FIG. 7. […] BCL9 Competition FP assay: Peptide solutions were prepared in buffer (50 mM Tris pH 8.0, 250 mM NaCl, 2% glycerol, 0.5 mM EDTA, 0.02% w/v sodium azide) using a 3-fold serial dilution from 10 μM. Probe solution (250 nM full-length beta-catenin, 20 nM 5FAM labeled peptide in buffer) was prepared and 40 μL per well plated in a black polystyrene 384-well plate (Corning). Equal volume of the titrated peptide was added to the plate and incubated protected from light for 15 minutes prior to read. Reads were performed on a Spectramax M5 (Molecular Devices) in duplicate. Probe: Ac-[…]nLeu-Leu-2NapA-bala-bala-Lys5FAM-NH2 (SEQ ID NO: 2) (from Biochemistry, 2009, 48 (40), pp 9534-9541). Axin Competition FP assay: Peptide solutions were prepared in buffer (50 mM Tris pH 8.0, 250 mM NaCl, 2% glycerol, 0.5 mM EDTA, 0.02% w/v sodium azide) using a 3-fold serial dilution from 5 μM. Probe solution (15 nM full-length beta-catenin, 20 nM FITC labeled peptide in buffer) was prepared and incubated for 5 minutes, then 40 μL per well plated in a black polystyrene 384-well plate (Corning). Equal volume of the titrated peptide was added to the plate and incubated protected from light for 15 minutes prior to read. Reads were performed on a Spectramax M5 (Molecular Devices) in duplicate. Probe: FITC-StAx-33 from Grossmann et al. PNAS 109 17942-17947.

Q: `CC[C@H](C)[C@@H]1NC(=O)[C@H](Cc2c[nH]cn2)NC(=O)[C@H](C)NC(=O)[C@H](CC(=O)O)NC(=O)[C@H](C)NC(=O)[C@H]([C@@H](C)CC)NC(=O)[C@](C)(NC(=O)[C@H](C)NC(C)=O)CCCCCCC=CCOC(=O)N2CC[C@@](C(=O)N[C@@H](CCCNC(=N)N)C(=O)N[C@H](C(=O)N[C@@H](Cc3c[nH]c4ccccc34)C(N)=O)C(C)C)(C2)NC1=O` [FP0406c, Ac-A-R8-I-A-D-A-H-I-MB-R-V-W-NH2] was tested. Which EC50 did it give?
A: 100 to 500 nM

Q: For `CC[C@H](C)[C@@H]1NC(=O)[C@H](Cc2ccccn2)NC(=O)[C@H](C)NC(=O)[C@H](CC(=O)O)NC(=O)[C@H](CC(C)C)NC(=O)[C@H]([C@@H](C)CC)NC(=O)[C@](C)(NC(=O)[C@H](C)NC(C)=O)CCCCCCC=CCOC(=O)N2CC[C@@](C(=O)N[C@@H](Cc3ccccc3)C(=O)N[C@H](C(=O)N[C@@H](Cc3c[nH]c4ccccc34)C(N)=O)C(C)C)(C2)NC1=O` (single isomer, unassigned) [FP0555c Isomer 2, Ac-A-R8-I-L-D-A-2pyr-I-MB-F-V-W-NH2], which EC50 is on record?
A: > 5000 nM

Q: For `CC[C@H](C)[C@@H]1NC(=O)[C@H](Cc2c[nH]cn2)NC(=O)[C@H](C)NC(=O)[C@H](C)NC(=O)[C@H](CC(C)C)NC(=O)[C@H]([C@@H](C)CC)NC(=O)[C@](C)(NC(=O)[C@H](C)NC(C)=O)CCCCCCC=CCOC(=O)N2CC[C@@](C(=O)N[C@@H](CCCNC(=N)N)C(=O)N[C@H](C(=O)N[C@@H](Cc3c[nH]c4ccccc34)C(N)=O)C(C)C)(C2)NC1=O` [FP0407c, Ac-A-R8-I-L-A-A-H-I-MB-R-V-W-NH2], which EC50 is on record?
A: 500 to 5000 nM

Q: `CC[C@H](C)[C@@H]1NC(=O)C2(NC(=O)[C@H](CCC(N)=O)NC(=O)[C@@H]3CCCN3C(C)=O)CN(C2)C(=O)OCC=CCCC[C@](C)(C(=O)N[C@@H](Cc2c[nH]cn2)C(=O)N[C@H](C(=O)N[C@@H](CCCNC(=N)N)C(=O)N[C@@H](CCCNC(=N)N)C(=O)N[C@H](C(=O)N[C@@H](Cc2c[nH]c3ccccc23)C(=O)N[C@@H](CCCNC(=N)N)C(N)=O)C(C)C)C(C)C)NC(=O)[C@H](CC(=O)O)NC(=O)[C@H](CC(C)C)NC1=O` (single isomer, unassigned) [FP0723c, Ac-P-Q-MA-I-L-D-R5-H-V-R-R-V-W-R-NH2] was tested. Which EC50 did it give?
A: 500 to 5000 nM

Q: How did the EC50 turn out when `CC[C@H](C)[C@@H]1NC(=O)[C@H](Cc2c[nH]cn2)NC(=O)[C@H](C)NC(=O)[C@H](CC(=O)O)NC(=O)[C@H](CC(C)C)NC(=O)[C@H]([C@@H](C)CC)NC(=O)[C@](C)(NC(=O)[C@H](C)NC(C)=O)CCCCCCC=CCOC(=O)N2CC[C@@](C(=O)N[C@@H](CCCCN)C(=O)N[C@H](C(=O)N[C@@H](Cc3c[nH]c4ccccc34)C(N)=O)C(C)C)(C2)NC1=O` [FP0635c, Ac-A-R8-I-L-D-A-H-I-MB-K-V-W-NH2] was run?
A: 100 to 500 nM

Same assay, conditions: competition with FITC labeled Axin-site probe, 15 nM full-length beta-catenin; read-out: FP EC50

Q: How did the EC50 turn out when `CC[C@H](C)[C@@H]1NC(=O)[C@](C)(NC(=O)[C@H](CCC(N)=O)NC(=O)[C@@H]2CCCN2C(C)=O)CCCC=CCN(C)CC[C@](C)(C(=O)N[C@@H](Cc2c[nH]cn2)C(=O)N[C@H](C(=O)N[C@@H](CCCNC(=N)N)C(=O)N[C@@H](CCCNC(=N)N)C(=O)N[C@H](C(=O)N[C@@H](Cc2c[nH]c3ccccc23)C(=O)N[C@@H](CCCNC(=N)N)C(N)=O)C(C)C)C(C)C)NC(=O)[C@H](CC(=O)O)NC(=O)[C@H](CC(C)C)NC1=O` (single isomer, unassigned) [FP-0776, Ac-P-Q-R5-I-L-D-RdN-H-V-R-R-V-W-R-NH2] was run?
A: 580 nM

Q: Which EC50 does the source give for `CC[C@H](C)[C@@H]1NC(=O)[C@]2(NC(=O)[C@H](CCC(N)=O)NC(=O)[C@@H]3CCCN3C(C)=O)CCN(CC=CCCCCC[C@@](C)(C(=O)N[C@@H](Cc3c[nH]cn3)C(=O)N[C@H](C(=O)N[C@@H](CCCNC(=N)N)C(=O)N[C@@H](CCCNC(=N)N)C(=O)N[C@H](C(=O)N[C@@H](Cc3c[nH]c4ccccc34)C(=O)N[C@@H](CCCNC(=N)N)C(N)=O)C(C)C)C(C)C)NC(=O)[C@H](CC(=O)O)NC(=O)[C@H](CC(C)C)NC1=O)C2` (single isomer, unassigned) [FP-0753, Ac-P-Q-PS-I-L-D-S7-H-V-R-R-V-W-R-NH2] here?
A: > 5000 nM
